Assay results published in patent US12551532B2, “Long-acting amylin receptor agonists and uses thereof” (Eli Lilly and Company, priority 2021, dated 2026).
Starred links: 1 amine or outer side, 2 acyl side, 3 side chain; linkers in the order of their positions; H or OH if unused. Positions of bridges follow the written chain, without caps; N, C: chain ends. Non-standard residues stand in square brackets, D forms with d. Residues, ends and D or L forms follow the SMILES beside them. Groups on a side chain read outwards from the residue. *: point of attachment. C20 diacid = O=C(O)CCCCCCCCCCCCCCCCCCC(=O)*; γGlu = O=C(O)[C@H](CCC(=O)[*:2])N[*:1]; αMeL = CC(C)C[C@](C)(N)C(=O)O; Orn = NCCC[C@H](N)C(=O)O; CH2 = C([*:1])[*:2]

How the values were obtained:
human CT receptors = molecular target: T1, human CT receptors (Homo sapiens, UniProt P30988); assay: hCTR cAMP functional activity (HTRF); type: cell-based; conditions: ±SE; UMUC3 cells overexpressing hCTR; relative EC50
T1 construct: expressed in transfected cells
T1 sequence (P30988 25-474): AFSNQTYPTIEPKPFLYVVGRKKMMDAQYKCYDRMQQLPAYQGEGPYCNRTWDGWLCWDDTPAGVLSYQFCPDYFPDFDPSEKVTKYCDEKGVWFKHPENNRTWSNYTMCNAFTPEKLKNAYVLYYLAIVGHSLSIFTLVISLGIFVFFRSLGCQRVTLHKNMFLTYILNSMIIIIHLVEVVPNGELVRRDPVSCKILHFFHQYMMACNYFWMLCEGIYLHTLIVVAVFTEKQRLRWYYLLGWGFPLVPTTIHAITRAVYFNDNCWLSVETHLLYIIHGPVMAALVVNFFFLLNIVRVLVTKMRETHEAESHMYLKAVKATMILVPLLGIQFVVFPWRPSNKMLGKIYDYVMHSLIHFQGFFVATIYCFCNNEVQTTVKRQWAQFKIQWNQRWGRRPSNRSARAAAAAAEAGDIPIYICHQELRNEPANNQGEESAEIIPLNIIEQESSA
Outline: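 UM-UC-3 bladder cells stably overexpressing human CT receptor, 1200 cells/well, exposed to peptides in 1:3 dilution series for 1 h at room temperature. Intracellular cAMP measured by HTRF after 60 min lysis/detection, converted to pmol/well from a per-experiment cAMP standard curve.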

[1] = Body weight and body composition in diet-induced obese rats, 2-week study; type: in vivo, Long Evan rats; conditions: DIO rats, at 2 weeks vs initial
Procedure: Male Long Evan rats from Envigo RMS (Indianapolis, IN) at 14 weeks of age are put on a high fat diet (40% of kcal from fat, TD.95217; Envigo RMS, Indianapolis, IN) until 35-45 weeks old. Animals are individually housed in a temperature-controlled facility (75.0° F.; 23.9° C.) with a 12-hour reverse light/dark cycle (lights OFF at 10 AM) and free access to food and water. Body weights are recorded and body composition (fat mass) is determined using Quantitative Nuclear Magnetic Resonance Analysis (ECHO MRI, 3-1 Composition Analyzer; Echo Medical Systems, Houston, TX), followed by randomization into experimental groups (n=5). Rats are administered subcutaneous injections of vehicle or peptide (1 mL/kg) every three days (day 1, 4, 7, 10, and 13). Daily body weights are recorded and changes at end of treatment (day 14) are calculated as percentages versus pre-treatment weights (day 1). Body composition is determined on day 14, and changes in fat mass and fat-free mass (body weight−fat mass) are calculated from pre-treatment values as gram changes.

[2] = Pharmacokinetics in male Sprague Dawley rats; type: in vivo; conditions: single SC 30 nmol/kg, mean
Procedure: The pharmacokinetics of Compound II (SEQ ID NO:2), Compound IV (SEQ ID NO:4), Compound VI (SEQ ID NO:6), and Compound VIII (SEQ ID NO:8) are evaluated following a single subcutaneous administration of 30 nmol/kg to male Sprague Dawley rats. Blood samples are collected at 1, 3, 6, 12, 24, 48, 72, 96 hours post SC dose. The resulting individual plasma concentrations are used to calculate pharmacokinetic parameters. Peptide plasma (K3EDTA) concentrations are determined using a qualified LC/MS method that measured the intact mass of the peptides. Each peptide and an analog as an internal standard are extracted from plasma. A high resolution Thermo Q-Exactive is used for LC/MS detection.

human dendritic cells = type: cell-based
Procedure: MAPPS profiles the MHC-II presented peptides on human dendritic cells treated with tested molecules. CD14+ cells, isolated from the PBMCs of normal human donors, are cultured and differentiated into immature DCs by incubation with IL-4 and GM-CSF. On day 4, culture media is replaced with fresh media containing tested molecules. On day 5, LPS is added to transform the cells into mature DCs. On day 6, cells are lysed in RIPA buffer with protease inhibitors. Immunoprecipitation of MHC-II complexes are performed using biotinylated anti-MHC-II antibody coupled to streptavidin beads. The bound complex is eluted and filtered. The isolated MHC-II peptides are analyzed by a mass spectrometer. Peptide identifications are generated by an internal proteomics pipeline using search algorithms with no enzyme and a bovine/human database with test sequences appended to the database. A KNIME workflow is used to process the identification files from the samples. Peptides identified from the test articles are aligned against the parent sequence of the test molecule. The output is used to determine the percentage of donors displaying MHC-II peptides from regions of the test molecule. Compound II, Compound IV, Compound VI, Compound VIII, a compound representative of U.S. Pat. No. 9,023,789 (hereinafter “Compound '789”), and Pramlintide are tested in the MAPPs assay.

[3] = 100 nmol/kg SC every three days

CC[C@H](C)[C@H](NC(=O)[C@@H]1CCCN1C(=O)CNC(=O)[C@H](Cc1ccccc1)NC(=O)[C@H](CC(N)=O)NC(=O)[C@H](Cc1c[nH]cn1)NC(=O)[C@H](CO)NC(=O)[C@H](CO)NC(=O)[C@H](CCCNC(=N)N)NC(=O)[C@@H](NC(=O)[C@H](CC(C)C)NC(=O)[C@H](Cc1ccccc1)NC(=O)[C@H](CCC(=O)O)NC(=O)[C@H](C)NC(=O)[C@](C)(CC(C)C)NC(=O)[C@H](CCCN)NC(=O)CNC(=O)[C@@H](NC(=O)[C@H](C)NC(=O)[C@@H]1CSCSC[C@H](NC(=O)[C@@H](N)CCCCNC(=O)CC[C@H](NC(=O)CC[C@H](NC(=O)CCCCCCCCCCCCCCCCCCC(=O)O)C(=O)O)C(=O)O)C(=O)N[C@@H](CCC(=O)O)C(=O)N[C@@H]([C@@H](C)O)C(=O)N[C@@H](C)C(=O)N[C@@H]([C@@H](C)O)C(=O)N1)[C@@H](C)O)C(C)C)C(=O)N[C@@H](CC(C)C)C(=O)N1CCC[C@H]1C(=O)N1CCC[C@H]1C(=O)N[C@H](C(=O)N[C@@H](CCC(=O)O)C(=O)N[C@H](C(=O)NCC(=O)N[C@@H](CO)C(=O)N[C@@H](CC(N)=O)C(=O)N[C@H](C(=O)N[C@@H](Cc1ccc(O)cc1)C(N)=O)[C@@H](C)O)C(C)C)[C@@H](C)O [Compound VIII] (H-K([γGlu-γGlu-C20 diacid])CETATCATG[Orn][αMeL]AEFLVRSSHNFGPILPPTEVGSNTY-NH2; linker 2-7 via CH2)
EC50 (human CT receptors): 9.69 ± 2.01 nM | Δ Body Weight ([1]; 1 nmol/kg SC every three days): −6.0% | Δ Fat Mass ([1]; 1 nmol/kg SC every three days): -36.6 g | Δ Fat-Free Mass ([1]; 1 nmol/kg SC every three days): -4.7 g | Δ Body Weight ([1]; 10 nmol/kg SC every three days): −9.0% | Δ Fat Mass ([1]; 10 nmol/kg SC every three days): -54.3 g | Δ Fat-Free Mass ([1]; 10 nmol/kg SC every three days): -7.2 g | Δ Body Weight [1, 3]: −11.5% | Δ Fat Mass [1, 3]: -56.4 g | Δ Fat-Free Mass [1, 3]: -26.9 g | CL/F ([2]; rat, plasma, n = 3): 3.7 mL/h/kg | Tmax ([2]; rat, plasma, n = 3): 16 ± 6.9 h | half-life ([2]; rat, plasma, n = 3, read-out: T l/2 (converted)): 2180 ± 176 min | AUCINF/D ([2]; n = 3): 270 ± 22.4 hr * kg * nmol/L/nmol | Cmax/D ([2]; n = 3): 3.8 ± 0.4 kg * nmol/L/nmol | MAPPS Assay donors displayed peptides (human dendritic cells): no peptides | MAPPS Assay immunogenicity risk (human dendritic cells): Low Risk | peptides displayed on MHC-II complexes (human dendritic cells): no peptides displayed on MHC-II complexes
